Experimental data from publication PMC7717570, “Deciphering the enzymatic target of a new family of antischistosomal agents bearing a quinazoline scaffold using complementary computational tools” (Journal of Enzyme Inhibition and Medicinal Chemistry, 2020).
Where two headings read alike, the source gives them in different places.

What was measured:
[1] = Microsomal stability, mouse liver microsomes (S9), Phase-II (UGT enzymes); format: in vitro ADME; settings: 5 µM
Protocol: (§1) Mouse or human liver microsomes (S9), reduced nicotinamide adenine dinucleotide phosphate (NADPH) generating system solutions and uridine glucuronosyltransferase (UGT) reaction mix (BD Biosciences) were kept at −80 °C. The test compounds and reference compound diclofenac were formulated in DMSO at […]. The assay was carried out based on the BD Biosciences Guidelines for Use (TF000017 Rev1.0) with minor adaptations. The metabolic stability of the compounds was studied through the CYP450 superfamily (Phase-I metabolism) by fortification with NADPH and through UGT enzymes (Phase-II metabolism) by fortification with uridine diphosphate glucuronic acid (UDPGA). For CYP450 and other NADPH dependent enzymes, the compounds were incubated at 5 µM together with 0.5 mg/mL S9 in potassium phosphate buffer in a reaction started by the addition of 1 mM NADP. At defined time points, 20 µL was withdrawn from the reaction mixture and 80 µL cold acetonitrile (ACN) was added to inactivate the enzymes and precipitate the protein. The mixture was vortexed for 30 s and centrifuged at 4 °C for 5 min to collect the supernatant. For UGT enzymes, the compounds were incubated at 5 µM together with 0.5 mg/mL S9 in a reaction started by the addition of 2 mM UDPGA cofactor. The loss of parent compound was determined using liquid chromatography (UPLC) (Waters Aquity^TM) coupled with tandem quadrupole mass spectrometry (MS^2) (Waters Xevo^TM), equipped with an electrospray ionisation (ESI) interface and operated in multiple reaction monitoring (MRM) mode.

[2] = system: Schistosoma mansoni mature worms; parameters: method as in PMID 30669086; settings: cited from earlier work; for Worm killing (% of total) / Worm killing (female worms) / Worm killing (male worms): day 5, previously reported; for EC50: previously reported
[3] = Microsomal stability, mouse liver microsomes (S9), Phase-I (CYP450-NADPH); format: in vitro ADME; settings: 5 µM
Protocol: as §1

[4] = system: S. mansoni-infected mouse model; assay: In vivo antischistosomal efficacy in the S. mansoni-infected mouse model; parameters: species or system Schistosoma mansoni; settings: mice
Protocol: PZQ was obtained from Egyptian International Pharmaceutical Industries Company (EIPICO) and aminobenzotriazole (ABT) from Fluorochem Ltd.
Male Swiss albino mice (CD-1) obtained from SBSC and weighing 18–20 g were housed under environmentally controlled room temperature of 20–22 °C, 12 h light/dark cycle and 50–60% humidity with food and water ad libitum throughout the acclimatisation and experimental periods. All the animal experiments were conducted in accordance with the Guide for Care and Use of Laboratory Animals and were approved by the Institutional Review Board of Theodor Bilharz Research Institute (TBRI).
Mice were infected with S. mansoni cercariae [provided by Schistosome Biology Supply Center (SBSC)] using body immersion[16] by exposure to 80 ± 10 cercariae/mouse. Infected mice were divided into six groups: groups 1 and 2 were treated the vehicle and the CYP450 inhibitor ABT respectively; groups 3 and 4 were dosed for 5 days with NPD-1246 at 20 and 10 mg/kg, respectively, while group 5 was treated with PZQ at 10 mg/kg/day for 5 days. Group 6 was treated with NPD-1246 combined with PZQ, each at 10 mg/kg/day for 5 days starting from week 7 post-infection. To minimise first-pass elimination, ABT was administered at 100 mg/kg/day for 5 days 2 h prior to each compound administration. NPD-1246 and PZQ were freshly suspended in 2% Cremophore-EL (Sigma-Aldrich). All drug administrations were performed orally.
Ten days post-treatment, all mice were sacrificed and perfused, and the number of worms recovered (worm burden) was quantified and sexed. The number of eggs per gram of liver or intestinal tissue was counted. The percentage of egg developmental stages (oogram pattern) was studied[19] in which eggs at different stages of maturity (from I to IV) were identified and counted. Mature eggs and dead eggs (granular, dark, and semi-transparent) were also counted in three fragments of intestine and the mean number of each stage was calculated.
The percentage reduction of worm or egg burden in each treated group was calculated. […] Results are expressed as mean ± SEM. A two-tailed, unpaired Student’s t-test was used to detect the significance of difference between the means of different groups. Results are considered significant if p value is <0.05.

[5] = system: Schistosoma mansoni worm couples; parameters: method as in PMID 30669086; settings: previously reported, cited from earlier work
[6] = oral 20 mg/kg/day for 5 days with ABT

## O=c1c2ccccc2n(Cc2ccc(C(F)(F)F)cc2)c(=O)n1Cc1ccccc1 [NPD-1246, 3-Benzyl-1-(4-(trifluoromethyl)benzyl)quinazoline-2,4(1H,3H)-dione]
[1]; 0 h
  % Parent compound remaining upon incubation: 100%
[1]; 0.25 h
  % Parent compound remaining upon incubation: 111%
[1]; 0.5 h
  % Parent compound remaining upon incubation: 111%
[1]; 1 h
  % Parent compound remaining upon incubation: 106%
[2]; 5 µM
  Worm killing (% of total): 0%
[2]; 10 µM
  Worm killing (% of total): 0%
[2]; 25 µM
  Worm killing (% of total): 0%
[2]; 50 µM
  Worm killing (% of total): 53%
[2]; 100 µM
  Worm killing (% of total): 100%
[2]; female worms, 5 µM
  Worm killing (female worms): 0
[2]; female worms, 10 µM
  Worm killing (female worms): 0
[2]; female worms, 25 µM
  Worm killing (female worms): 0
[2]; female worms, 50 µM
  Worm killing (female worms): 57
[2]; female worms, 100 µM
  Worm killing (female worms): 100
[2]; female worms, read-out: EC50 (worm killing, female worms)
  EC50: 50 µM
[2]; male and female worms, read-out: EC50 (worm killing)
  EC50: 50 µM
[2]; male worms, 5 µM
  Worm killing (male worms): 0
[2]; male worms, 10 µM
  Worm killing (male worms): 0
[2]; male worms, 25 µM
  Worm killing (male worms): 0
[2]; male worms, 50 µM
  Worm killing (male worms): 50
[2]; male worms, 100 µM
  Worm killing (male worms): 100
[2]; male worms, read-out: EC50 (worm killing, male worms)
  EC50: 50 µM
[3]; 0 h
  % Parent compound remaining upon incubation: 100%
[3]; 0.25 h
  % Parent compound remaining upon incubation: 66%
[3]; 0.5 h
  % Parent compound remaining upon incubation: 27%
[3]; 1 h
  % Parent compound remaining upon incubation: 8%
[4]; [6]
  Percentage of dead eggs compared to the infected untreated group: significant increase
  Reduction in intestinal tissue egg load (percentage change from infected control): 18%
[4]; oral 20 mg/kg/day for 5 days with ABT 100 mg/kg/day, sacrificed 10 days post-treatment
  Reduction in total worm burden (percentage change from infected control): 24%
[5]; 5 µM
  Uncoupling: No
[5]; 10 µM
  Uncoupling: No
[5]; 25 µM, listed as NPD-1246 (1)
  Uncoupling: Uncoupling and Yes
[5]; 50 µM
  Reduction in number of eggs (%): 100%
[5]; 50 µM, listed as NPD-1246 (1)
  Uncoupling: Uncoupling and Yes
[5]; 100 µM
  Reduction in number of eggs (%): 100%
[5]; 100 µM, listed as NPD-1246 (1)
  Uncoupling: Uncoupling and Yes
